# Measured values as given in the supplement of paper PMC10307832.
# Tests used:
# Assay in all cases: relative viability (nuclei count vs DMSO), 5 days (fraction); higher = more cells survive
# [1] = compound: C1=CC=C(C(=C1)C2=CC=C(C=C2)C3=CSC4=C3C(=C(C(=O)N4)C#N)O)O
# How it was run: (§1)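 Lung cancer cell lines in 1536-well plates were exposed by pinning to five library-drug doses (not always all listed) √10 apart, following an overnight hold at 37 °C. MetaXpress counted Hoechst-stained nuclei from 4× images taken after 5 days without medium change. Viability is the median ratio of treated-well to vehicle-well nuclei across plates. Plates required control CV below 25% and at least one doubling.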
# TGX 221 = compound: CC1=CN2C(=O)C=C(N=C2C(=C1)C(C)NC3=CC=CC=C3)N4CCOCC4 [TGX 221]
# How it was run: as §1
# Ricolinostat = compound: O=C(CCCCCCNC(=O)c1cnc(N(c2ccccc2)c2ccccc2)nc1)NO [Ricolinostat]
# How it was run: as §1
# [2] = compound: C1=CC=C(C(=C1)C2=CC=C(C=C2)C3=CSC4=C3C(=C(C(=O)N4)C#N)O)O + COc1cc2c(Oc3ccc(NC(=O)C4(C(=O)Nc5ccc(F)cc5)CC4)cc3F)ccnc2cc1OCCCN1CCOCC1 [Foretinib] (partner 0.25 µM)
# How it was run: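 One day after seeding in 1536-well plates, lung cancer cell lines were dosed by pin tool. Dosing was either single-drug or a fixed anchor-drug dose plus five library-drug doses (not always all listed) in √10 steps. After 5 days, nuclei were stained in one fix-and-stain step and counted on 4× images, and relative viability is the nuclei count of treated wells over that of vehicle wells, given as the median of duplicate plates.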
Cell Line,relative viability ([1]; 0.08 µM),relative viability ([1]; 0.253 µM),relative viability ([1]; 0.8 µM),relative viability ([1]; 2.53 µM),relative viability ([1]; 8 µM),relative viability (TGX 221; 0.08 µM),relative viability (TGX 221; 0.253 µM),relative viability (TGX 221; 0.8 µM),relative viability (TGX 221; 2.53 µM),relative viability (TGX 221; 8 µM),relative viability (Ricolinostat; 0.08 µM),relative viability (Ricolinostat; 0.253 µM),relative viability (Ricolinostat; 0.8 µM),relative viability (Ricolinostat; 2.53 µM),relative viability ([2]; first compound 0.08 µM),relative viability ([2]; first compound 0.253 µM),relative viability ([2]; first compound 0.8 µM),relative viability ([2]; first compound 2.53 µM),relative viability ([2]; first compound 8 µM)
NCI-H1563,0.959,0.971,0.976,0.955,0.989,0.947,0.915,0.831,0.866,0.748,0.894,1.02,0.837,0.864,0.972,0.862,0.947,0.861,0.927
NCI-H2087,1.02,1.21,1.08,1.05,0.637,1.19,1.15,1.12,1,0.988,0.912,1.02,0.974,0.699,1.35,1.27,1.06,1.11,0.792
HCC-78,0.85,1.23,1.15,0.966,0.832,0.769,0.856,0.785,0.722,0.76,,1.03,0.8,0.637,0.649,0.629,0.579,0.498,0.52
Calu-6,1.01,1.11,1.02,1.08,0.899,1.03,0.929,1.02,0.923,0.957,0.957,0.994,0.981,0.895,0.985,0.967,0.909,0.94,0.773
NCI-H520,0.808,0.901,1.07,1.04,0.777,0.809,0.797,0.741,0.692,0.656,,1.05,1.01,0.861,0.515,0.711,0.835,0.848,0.627
NCI-H1623,1.04,1.1,0.927,1.04,0.774,1.04,0.863,0.949,0.82,0.991,0.933,0.972,1.12,0.889,0.915,0.971,0.864,0.889,0.798
NCI-H727,1.02,0.92,0.987,0.808,0.842,0.885,0.887,0.948,0.898,0.97,0.763,1.11,1,0.81,1.26,0.97,1.27,0.789,0.843
NCI-H1734,0.833,0.992,0.971,1.01,0.753,0.91,0.892,1,0.934,0.9,0.81,1.03,0.935,0.894,0.783,0.803,0.899,0.971,0.738
NCI-H1993,0.892,1.17,0.897,0.87,0.83,0.878,0.762,0.886,0.681,0.877,0.726,1,0.999,1.04,0.67,0.52,0.765,0.76,0.723
